Laboratory results taken from PMC12441861, “Next-Generation Lipid Prodrugs Orally Deliver Tenofovir via Enhanced Chylomicron Incorporation” (ACS Pharmacology & Translational Science, 2025).
Where two headings read alike, the source gives them in different places. Blank lines part the entries; values can stand above or below the compound they belong to.

What was measured:
[1] = Cytotoxicity, MTT assay; conditions: human, TZM-bl cells
[2] = system: Caco-2 cell total membrane; experiment: Drug in Caco-2 total membrane fraction versus CM fraction; type: in vitro ADME, human
Source text: Having completed this initial prodrug screening, we next sought to evaluate their ability to incorporate into CMs in vitro. For a lysoglycerolipid prodrug (e.g., TXL and BCV) to be packaged into CMs, it must first be transported into intestinal enterocytes, like Caco-2 cells, by intercalating into the outer leaflet of the plasma membrane before flipping (either actively or passively) to the inner leaflet. Subsequent membrane desorption facilitates intraenterocyte diffusion to the ER and Golgi, where CM are produced. Accordingly, we hypothesized that, even though high lipophilicity should drive prodrug association with CMs, these low hydrophilicity compounds first need to get through the plasma membrane, which could create a kinetic barrier to CM incorporation. […] Proceeding with the CM production and isolation assay as described (Scheme ), cells were harvested in parallel, and the total membrane fraction was separated from other cellular components via centrifugation through a specialized filter provided with the Minute Plasma Membrane Protein Isolation and Cell Fractionation Kit from Invent Biotechnologies (cat No. SM-005). […]
Total membrane fractionation was performed using a Minute Plasma Membrane Protein Isolation and Cell Fractionation Kit from Invent Biotechnologies (cat No. SM-005). […] The clear supernatant was collected and analyzed using LC-MS/MS.

[3] = Metabolic stability in human liver microsomes; type: in vitro ADME; conditions: pH 7.4, read-out: Metabolic Stability HLM t1/2
Experimental: Assays employed human liver microsomes (HLMs, 20 mg/mL) from Xenotech. A 10 mM NADPH stock was prepared in deionized H2O, and test compounds were dissolved in 100% MeOH to a final concentration of 10 mM. The stock solutions were diluted to 500 μM in 100 mM potassium phosphate buffer (pH 7.4), keeping the final MeOH concentration below 0.2%. Reaction mixtures were prepared by combining 928 μL phosphate buffer, 55 μL liver microsomes, and the test compound solution to a final concentration of 3 μM. Verapamil was used as a positive control. The reactions were initiated with the addition of 110 μL of 10 mM NADPH. Aliquots were taken in duplicate at 0, 5, 10, 15, and 30 min, quenched with 100 μL of cold MeOH containing 2 μM internal standard (d 5-7-ethoxy coumarin), and centrifuged at 12,000 RCF for 5 min. The supernatants were then transferred to LC-MS vials for analysis. The average of each duplicate was normalized to the 0 min time point, representing 100% remaining (0% metabolism).

[4] = Cytotoxicity, ATP luminescence (Cell Titer Glow) assay; conditions: human, TZM-bl cells
[5] = Mouse oral PK and tissue distribution, fed state; type: in vivo; conditions: single oral dose 10 mg/kg, fed mice
Source text: Given the increased packaging of the CF3-modified lipids into CMs compared to their ω-unmodified congeners, we selected these compounds for PK studies in mice. We hypothesized that, following oral administration, our modified prodrugs would favor CM-mediated transport into the lymphatics over absorption into mesenteric veins feeding into the portal system. By circumventing direct transport to the liver, these prodrugs are expected to achieve elevated levels in the lung relative to the liver, as lymph empties into the jugular venous angle and mixes with blood en route to the pulmonary arteries (Figure ). For all mouse PK experiments, prodrugs were formulated in a 9:1 mixture of olive oil and ethanol, then administered to male C57BL/6 mice via oral gavage at a dose of 10 mg/kg. Organs (liver, lung, and plasma) were harvested at 1, 2, 4, 8, and 18 h postdose, per the protocol described by our groups previously. Concentrations of prodrug were quantified using LC-MS/MS after tissue homogenization, extraction, and sample preparation.
The compounds TXL, 15a, 15b, 21a, 21b, and a vehicle control were prepared at a concentration of 1 mg/mL in a 90:10 solution of olive oil (Sigma-Aldrich, cat. No. O1514) and 190-proof ethanol. The dosing for each mouse was calculated based on individual body weights to achieve a final dose of 10 mg/kg. For example, a 20 g mouse would receive 200 μL of the 1 mg/mL drug formulation, while a 25 g mouse would receive 250 μL.
In accordance with the American Chemical Society Guidelines to Publication of Chemical Research, we affirm the use of standard ethical practices when housing and handling research animals, as ensured by the Emory University’s Institutional Animal Care and Use Committee (IACUC) and the Division of Animal Resources (DAR) through a rigorous protocol review, amendment, and approval process. A total of 220 C57BL6/J male mice (aged 11–12 weeks, weight, 22–30 g) were used for these studies. Each mouse was weighed, recorded, and ear-clipped for identification. The dosing for each mouse was calculated based on individual body weights to achieve a final dose of 10 mg/kg. Animals were anesthetized using isoflurane gas before receiving a single dose of drug prepared as described above using a 22-gauge gavage needle attached to a calibrated syringe.
Time points for tissue collection were 1, 2, 4, 8, and 18 h for unfasted mice, and 1, 2, 4, 8, and 24 h for fasted mice. At each time point, the mice (n = 4 per compound per time point) were anesthetized using isoflurane and subjected to cardiac puncture for blood collection into EDTA-coated tubes. The collected blood samples were immediately placed on ice before the mice were humanely euthanized via cervical dislocation. Brain, liver, lungs, and kidneys were harvested, rinsed in PBS, and placed in prelabeled tubes. Tissues were flash-frozen in liquid nitrogen then transferred to dry ice for storage.
Blood samples were collected into EDTA-coated tubes and centrifuged at 400 RCF for 10 min at 4 °C to separate plasma from the cellular components. The plasma layer was carefully pipetted off and stored in separate prelabeled and preweighed tubes. All tissues were stored at −80 °C until time for processing.
Tissues were weighed (∼50 mg) into homogenization tubes and ACN containing a 10 μM ITSD was added to achieve a final solvent-to-tissue ratio of 4:1. Homogenization beads were added, and the tissues were processed (Biotage Lysera, part no. 19–060) using two 20 s pulses with a 10 s interval period. Homogenate was centrifuged at maximum speed for 1 h, supernatant collected and analyzed via LC-MS using the method described previously. For plasma samples, a 50 μL aliquot was added 200 μL of ACN containing ITSD. The mixture was vortexed thoroughly and then centrifuged to precipitate proteins, with the supernatant collected and analyzed via LC-MS. […]

[6] = Metabolic stability in mouse liver microsomes; type: in vitro ADME; conditions: pH 7.4, read-out: Metabolic Stability MLM t1/2
[7] = parameters: method as in Hostetler 2007; conditions: single oral dose, prodrug in lung and liver over 72 h; ref Hostetler 2007; cited from earlier work
[8] = ref Hostetler 2007; cited from earlier work
[9] = parent Cidofovir; ref Hostetler 2007; cited from earlier work

drug in membrane fraction ([2]; 20 h): undetectable | half-life at 3 µM [3]: > 2 h
SMILES: CCCCCCCCCCCCCCCCCCOC[C@H](COP(=O)(O)CO[C@H](C)Cn1cnc2c(N)ncnc21)OCc1ccccc1 [8d, Ammonium[(1R)-2-(6-aminopurin-9-yl)-1-methyl-ethoxy]methyl-[(2R)-2-benzyloxy-3-octadecoxy-propoxy]phosphinate]
CC50 at 48 h [1]: > 10 µM | membrane concentration compared with TXL ([2]; 8 h, n = 3): significantly greater concentrations in the membrane than TXL

Tmax ([5]; male, C57BL/6, mouse, liver, read-out: Liver Tmax): 4 h | Tmax ([5]; male, C57BL/6, mouse, lung, read-out: Lung Tmax): 8 h | Cmax ([5]; male, C57BL/6, mouse, plasma): 102 ng/mL | AUC(0-t) ([5]; male, C57BL/6, mouse, plasma, read-out: Plasma AUC0-18h): 1010 ng·h/mL | Tmax ([5]; male, C57BL/6, mouse, plasma, read-out: Plasma Tmax): 4 h | Liver AUC0-18h [5]: 133,000 h*ng/g | Liver Cmax [5]: 13,400 ng/g | Lung AUC0-18h [5]: 7,120 h*ng/g | Lung Cmax [5]: 585 ng/g | half-life at 3 µM [6]: 1.52 h | half-life at 3 µM [3]: > 2 h
SMILES: C[C@H](Cn1cnc2c(N)ncnc21)OCP(=O)(O)OCCCOCCCCCCCCCCCCCCCCCC(F)(F)F [15b, Ammonium[(1R)-2-(6-aminopurin-9-yl)-1-methyl-ethoxy]methyl-[3-(18,18,18-trifluorooctadecoxy)propoxy]phosphinate]
CC50 at 48 h [4]: > 1 µM

SMILES: CCCCCCCCCCCCCCCCOCCCOP(=O)(O)CO[C@H](CO)Cn1ccc(N)nc1=O [BCV, brincidofovir]
lung/liver AUC0–72h [7]: 0.04

SMILES: CCCCCCCCCCCCCCCCCCOCC(COP(=O)(O)COC(CO)Cn1ccc(N)nc1=O)OCc1ccccc1 (centres unmarked) [ODBG-CDV, 1-O-octadecyl-2-O-benzyl-sn-glycero-3-cidofovir]
lung/liver AUC0–72h [7]: 2.05 | increase in lung delivery compared to liver [8]: 13-fold increase in lung delivery compared to liver | Δ Oral Availability (% versus Parent) [9]: 32%
